According to PubChem BioAssay (NCI):
“And” between values parts separate entries of the source, which are not always exact repeats. Equal values may be shown once.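 Five compound concentrations were applied to cells in 96-well plates for 48 hours; endpoints were derived by simple linear interpolation of the resulting dose-response curve. GI50 is the concentration that inhibits growth by half. TGI: total growth inhibition.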

Key:
Assay in all cases: growth of human tumour cells (NCI), 48 h
[1] = system: MDA-MB-231 breast
[2] = system: LOX IMVI melanoma
[3] = system: MALME-3M melanoma
[4] = system: A549 NSCLC
[5] = system: TK-10 renal
[6] = system: NCI-H522 lung
[7] = system: NCI-H460 lung
[8] = system: HCC-2998 colon
[9] = system: SNB-75 CNS
[10] = system: MOLT-4 leukemia
[11] = system: RPMI-8226 leukemia
[12] = system: UACC-257 melanoma
[13] = system: SN12C renal
[14] = system: OVCAR-5 ovarian
[15] = system: U251 CNS
[16] = system: M19-MEL melanoma
[17] = system: SNB-19 CNS
[18] = system: SR leukemia
[19] = system: HCT-15 colon
[20] = system: SW-620 colon
[21] = system: 786-0 renal
[22] = system: DU-145 prostate
[23] = system: SK-MEL-28 melanoma
[24] = system: MDA-N
[25] = system: K-562 leukemia
[26] = system: COLO 205 colon
[27] = system: CAKI-1 renal
[28] = system: SF-295 CNS
[29] = system: A498 renal
[30] = system: HOP-18 NSCLC
[31] = system: SF-539 CNS
[32] = system: SF-268 CNS
[33] = system: OVCAR-4 ovarian
[34] = system: CCRF-CEM leukemia
[35] = system: DLD-1 colon
[36] = system: LXFL 529 NSCLC
[37] = system: DMS 273 small cell lung
[38] = system: MDA-MB-435
[39] = system: T-47D breast
[40] = system: SK-MEL-2 melanoma
[41] = system: HCT-116 colon
[42] = system: HS 578T breast
[43] = system: OVCAR-3 ovarian
[44] = system: XF 498 CNS
[45] = system: EKVX NSCLC
[46] = system: DMS 114 small cell lung
[47] = system: NCI-H226 lung
[48] = system: NCI-H23 lung
[49] = system: MCF7 breast
[50] = system: IGROV1 ovarian
[51] = system: KM12 colon
[52] = system: ACHN renal
[53] = system: M14 melanoma
[54] = system: SNB-78 CNS
[55] = system: HOP-62 NSCLC
[56] = system: NCI/ADR-RES ovarian
[57] = system: HL-60(TB) leukemia
[58] = system: RXF 393 renal
[59] = system: UACC-62 melanoma
[60] = system: UO-31 renal
[61] = system: SK-OV-3 ovarian
[62] = system: HT29 colon
[63] = system: SK-MEL-5 melanoma
[64] = system: OVCAR-8 ovarian
[65] = system: HOP-92 NSCLC
[66] = system: KM20L2 colon
[67] = system: RXF-631 renal

CSc1nc(C)c(Br)c(=O)n1C1OC(COC(C)=O)C(OC(C)=O)C(OC(C)=O)C1OC(C)=O (stereo not given)
TGI [1]: > 100 µM | TGI [2]: > 100 µM | GI50 [3]: > 100 µM and 33.4 µM | TGI [3]: > 100 µM and 70.4 µM | GI50 [4]: > 100 µM and 28.5 µM | TGI [4]: > 100 µM | GI50 [5]: 43.1 µM and 20.6 µM | TGI [5]: > 100 µM and 55.9 µM | GI50 [6]: > 100 µM and 30.9 µM | TGI [6]: > 100 µM | TGI [7]: > 100 µM | TGI [8]: > 100 µM | GI50 [9]: 10.5 µM and 26.5 µM | TGI [9]: 51.8 µM and 65.1 µM | TGI [10]: > 100 µM | TGI [11]: > 100 µM | GI50 [12]: > 100 µM and 39 µM | TGI [12]: > 100 µM | TGI [13]: > 100 µM | TGI [14]: > 100 µM | TGI [15]: > 100 µM and 49.3 µM | GI50 [16]: > 100 µM and 44.6 µM | TGI [16]: > 100 µM | GI50 [17]: 51.8 µM | TGI [17]: > 100 µM | TGI [18]: > 100 µM | TGI [19]: > 100 µM | TGI [20]: > 100 µM | GI50 [21]: 74 µM and 26.3 µM | TGI [21]: > 100 µM and 48.5 µM | TGI [22]: > 100 µM | GI50 [23]: > 100 µM and 21 µM | TGI [23]: > 100 µM and 57 µM | TGI [24]: > 100 µM | TGI [25]: > 100 µM | TGI [26]: > 100 µM | GI50 [27]: > 100 µM and 33.9 µM | TGI [27]: > 100 µM and 83.9 µM | TGI [28]: 79.7 µM and 70.8 µM | GI50 [29]: 29.4 µM and 75.4 µM | TGI [29]: > 100 µM | TGI [30]: > 100 µM | GI50 [31]: > 52.8 µM and 18.6 µM | TGI [31]: > 80.2 µM and 34.4 µM | TGI [32]: > 100 µM and 44.2 µM | GI50 [33]: > 100 µM and 20.5 µM | TGI [33]: > 100 µM and 52.2 µM | TGI [34]: > 100 µM | TGI [35]: > 100 µM | GI50 [36]: > 100 µM and 32.1 µM | TGI [36]: > 100 µM and 76.4 µM | TGI [37]: > 100 µM | TGI [38]: > 100 µM | TGI [39]: > 100 µM | TGI [40]: > 100 µM | GI50 [41]: > 88.4 µM and 35 µM | TGI [41]: > 100 µM | TGI [42]: > 100 µM | TGI [43]: > 100 µM | TGI [44]: 43.6 µM | GI50 [45]: > 100 µM and 42.9 µM | TGI [45]: > 100 µM | GI50 [46]: > 100 µM and 25.5 µM | TGI [46]: > 100 µM and 81 µM | GI50 [47]: > 100 µM and 36 µM | TGI [47]: > 100 µM | GI50 [48]: > 100 µM and 47 µM | TGI [48]: > 100 µM | TGI [49]: > 100 µM | GI50 [50]: > 100 µM and 27.4 µM | TGI [50]: > 100 µM and 71.5 µM | TGI [51]: > 100 µM | GI50 [52]: > 100 µM and 35.4 µM | TGI [52]: > 100 µM | TGI [53]: > 100 µM | GI50 [54]: 17 µM and 63.6 µM | TGI [54]: 64.8 µM and > 100 µM | TGI [55]: 72.3 µM and 43.9 µM | TGI [56]: > 100 µM | TGI [57]: > 100 µM | TGI [58]: 49.2 µM and 40.7 µM | GI50 [59]: 97 µM and 23.3 µM | TGI [59]: > 100 µM and 44.1 µM | GI50 [60]: > 100 µM and 44.9 µM | TGI [60]: > 100 µM | GI50 [61]: > 91.7 µM and 42.3 µM | TGI [61]: > 100 µM | TGI [62]: > 100 µM | GI50 [63]: > 100 µM and 19.2 µM | TGI [63]: > 100 µM and 50.7 µM | GI50 [64]: > 100 µM and 36 µM | TGI [64]: > 100 µM | TGI [65]: 54.8 µM and 58.1 µM | TGI [66]: > 100 µM

NC(=O)Nc1c([N+](=O)[O-])cc(C(F)(F)F)cc1[N+](=O)[O-]
TGI [2]: > 100 µM | TGI [4]: > 100 µM | TGI [5]: > 100 µM | TGI [6]: > 100 µM | TGI [7]: > 100 µM | TGI [10]: > 100 µM | TGI [11]: > 100 µM | TGI [12]: > 100 µM | TGI [13]: > 100 µM | TGI [14]: > 100 µM | TGI [15]: > 100 µM | TGI [17]: > 100 µM | TGI [18]: > 100 µM | TGI [19]: > 100 µM | TGI [20]: > 100 µM | TGI [21]: > 100 µM | TGI [23]: > 100 µM | TGI [25]: > 100 µM | TGI [26]: 98.1 µM | TGI [27]: > 100 µM | TGI [28]: > 100 µM | TGI [29]: > 100 µM | TGI [31]: > 100 µM | TGI [32]: > 100 µM | TGI [33]: > 100 µM | TGI [34]: > 100 µM | TGI [36]: > 100 µM | TGI [37]: > 100 µM | TGI [40]: > 100 µM | TGI [41]: > 100 µM | TGI [43]: 82.5 µM | TGI [44]: > 100 µM | TGI [45]: > 100 µM | TGI [67]: > 100 µM | TGI [47]: > 100 µM | TGI [48]: > 100 µM | TGI [50]: > 100 µM | TGI [51]: > 100 µM | TGI [52]: > 100 µM | TGI [53]: > 100 µM | TGI [54]: > 100 µM | TGI [55]: > 100 µM | TGI [57]: > 100 µM | TGI [58]: > 100 µM | TGI [59]: > 100 µM | TGI [60]: > 100 µM | TGI [62]: > 100 µM | TGI [63]: > 100 µM | TGI [64]: > 100 µM | TGI [65]: > 100 µM | TGI [66]: 80.6 µM

CC(=O)c1ccc(NC(=O)C(=O)C(C(=O)c2ccc(Cl)c(Cl)c2)C2OC(=O)c3ccccc32)cc1 (stereo not given)
TGI [2]: 32.6 µM | TGI [3]: 24.9 µM | TGI [4]: 58.2 µM | TGI [5]: > 100 µM | TGI [6]: 22.1 µM | TGI [7]: 33.5 µM | TGI [8]: 26.9 µM | TGI [10]: > 100 µM | TGI [12]: > 100 µM | TGI [13]: 59.9 µM | TGI [14]: 71.5 µM | TGI [15]: 23 µM | TGI [17]: > 100 µM | TGI [18]: > 100 µM | TGI [19]: 34.7 µM | TGI [20]: > 100 µM | TGI [21]: 33.8 µM | TGI [25]: > 100 µM | TGI [26]: 28.8 µM | TGI [27]: > 100 µM | TGI [29]: 37.6 µM | TGI [30]: 90.6 µM | TGI [32]: 38.2 µM | TGI [33]: > 100 µM | TGI [34]: > 100 µM | TGI [35]: 55.8 µM | TGI [36]: 32.8 µM | TGI [37]: 68.5 µM | TGI [41]: 25.8 µM | TGI [43]: 42.6 µM | TGI [44]: > 100 µM | TGI [45]: > 100 µM | TGI [46]: 46.3 µM | TGI [47]: 24.6 µM | TGI [48]: 32.2 µM | TGI [50]: 65.5 µM | TGI [51]: 38.1 µM | TGI [52]: 45.5 µM | TGI [53]: 41 µM | TGI [54]: > 100 µM | TGI [55]: 45.3 µM | TGI [57]: > 100 µM | TGI [58]: 17.4 µM | TGI [59]: 33.7 µM | TGI [60]: > 100 µM | TGI [61]: > 100 µM | TGI [62]: 67.7 µM | TGI [64]: 27.6 µM | TGI [65]: 78.4 µM | TGI [66]: > 100 µM
